Measurements: PubChem BioAssay (NCI)
Several values for one entry are separate records, joined by “and”; a condition that tells them apart may be missing. Identical values can stand only once.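 Each compound was tested at five concentrations against cells in 96-well plates for 48 hours. Abbreviation: GI50, concentration required for 50% inhibition of growth. TGI denotes the concentration required for complete inhibition of growth.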

Tests used:
Experiment in all cases: inhibition of tumour cell growth, NCI panel, 48 h
A549 NSCLC = system: A549 NSCLC
CCRF-CEM leukemia = system: CCRF-CEM leukemia
HOP-62 NSCLC = system: HOP-62 NSCLC
K-562 leukemia = system: K-562 leukemia
MALME-3M melanoma = system: MALME-3M melanoma
MOLT-4 leukemia = system: MOLT-4 leukemia
NCI-H522 lung = system: NCI-H522 lung
SF-268 CNS = system: SF-268 CNS
SK-MEL-2 melanoma = system: SK-MEL-2 melanoma
TK-10 renal = system: TK-10 renal

SMILES | GI50 (A549 NSCLC) | TGI (A549 NSCLC) | GI50 (CCRF-CEM leukemia) | TGI (CCRF-CEM leukemia) | GI50 (HOP-62 NSCLC) | TGI (HOP-62 NSCLC) | GI50 (K-562 leukemia) | TGI (K-562 leukemia) | GI50 (MALME-3M melanoma) | TGI (MALME-3M melanoma) | GI50 (MOLT-4 leukemia) | TGI (MOLT-4 leukemia) | GI50 (NCI-H522 lung) [µM] | TGI (NCI-H522 lung) | GI50 (SF-268 CNS) | TGI (SF-268 CNS) | GI50 (SK-MEL-2 melanoma) | TGI (SK-MEL-2 melanoma) | GI50 (TK-10 renal) | TGI (TK-10 renal)
c1cc2[nH]ncc2cc1-c1nc2ccc3[nH]ncc3c2c2c1CCCC2 | 1.78 µM | > 31.4 µM | 0.836 µM | > 25.3 µM | 1.39 µM | 9.11 µM | 0.468 µM | > 44 µM | 1.08 µM | 4.22 µM | 1.13 µM | > 20.9 µM | 0.424 | 3.16 µM | 2.31 µM | 14 µM | 0.509 µM | 2.15 µM | 0.913 µM | 21.8 µM
O=C1Nc2c(C(F)(F)F)cccc2[C@@]1(c1ccc(O)cc1)c1ccc(OC(F)(F)F)cc1 | 0.0186 µM | 0.0414 µM | 14.5 µM | 45.9 µM | 0.0226 µM | 0.0661 µM | 0.183 µM | 20.7 µM | 12.4 µM | 25 µM | 6.51 µM | 25.4 µM | < 0.01 | < 0.0194 µM | 0.327 µM | 17.5 µM | 0.0194 µM | 0.0515 µM | < 0.01 µM | < 0.01 µM
Clc1ccc2c(c1)N(c1ncnc3ccc(-c4cnc5[nH]ccc5c4)cc13)CC2 | 2.61 µM | 17.7 µM | 1.71 µM | > 100 µM | 2.45 µM | 17.4 µM | 0.542 µM | > 100 µM | 1.08 µM | 19.5 µM | 0.954 µM | > 100 µM | 0.819 | 12.5 µM | 3.14 µM | 24.1 µM | 2.88 µM | 22.8 µM | 1.29 µM | 14.5 µM
CNCc1cc(OC)ccc1-c1ccc(OC)c(OC)c1OC | – | > 100 µM | – | > 100 µM | – | > 100 µM | – | > 100 µM | – | > 100 µM | – | > 100 µM | – | > 100 µM | – | > 100 µM | – | > 100 µM | – | > 100 µM
C=CC(=O)NCc1cccc(Nc2ncc(Br)c(NCCCNC(=O)C3CCC3)n2)c1 | 1.49 µM and 0.901 µM | 12.5 µM and 11.6 µM | 0.707 µM and 0.454 µM | 12.5 µM and > 25 µM | 0.448 µM and 0.152 µM | 9.77 µM and 4.33 µM | 2.99 µM and 0.937 µM | 12.5 µM and > 25 µM | 1.62 µM and 1.68 µM | 5.78 µM and 6.56 µM | 1.73 µM and 2.28 µM | 12.5 µM and > 25 µM | – | 12.2 µM and 5.52 µM | 0.297 µM and 0.296 µM | 2.57 µM and 4.07 µM | 2.17 µM and 2.93 µM | 5.57 µM and 7.08 µM | 0.41 µM and 1.86 µM | 4.21 µM and 11.6 µM
COc1ccc(C(=O)COC(=O)[C@H](C[Se][Se]C[C@H](NC(=O)c2ccc(Br)cc2F)C(=O)OCC(=O)c2ccc(OC)cc2)NC(=O)c2ccc(Br)cc2F)cc1 | 0.421 µM | 3.79 µM | 2.5 µM | 11.6 µM | 0.415 µM | 1.83 µM | 3.3 µM | > 55 µM | 2.04 µM | 4.4 µM | 2.63 µM | 17.8 µM | 0.66 | 2.02 µM | 0.943 µM | 3.21 µM | 0.862 µM | 2.57 µM | 1.23 µM | 3.4 µM
COC(=O)[C@]12CC[C@@H](C)[C@H](C)[C@@H]1C1=CC[C@@H]3[C@@]4(C)C(C=O)=C[C@@](C)(COC(C)=O)C4=CC[C@@]3(C)[C@]1(C)CC2 | 3.82 µM | 16.2 µM | 1.95 µM | 7.82 µM | 11.7 µM | 29.3 µM | 4.1 µM | 15.3 µM | 3.74 µM | 15.5 µM | 1.82 µM | 6.12 µM | 7.97 | 20.5 µM | 4.38 µM | 17 µM | 4.71 µM | 16.1 µM | 9.31 µM | 21.6 µM
O=[N+]([O-])c1ccc(Sc2ncnc3nc[nH]c23)c2nonc12 | 29.6 µM | > 100 µM | 1.78 µM | 5.14 µM | 4.97 µM | 20.7 µM | 0.436 µM | 2.72 µM | 13.1 µM | > 100 µM | 2.07 µM | 15.7 µM | 1.39 | 2.71 µM | 5 µM | 19.7 µM | 4.36 µM | 15.9 µM | 2.34 µM | 23.7 µM
COc1ccc(C(SCC(N)C(=O)O)(c2ccccc2)c2ccccc2)cc1 (stereo not given) | 0.594 µM | > 100 µM | 0.0992 µM | > 100 µM | 0.392 µM | > 84.5 µM | 0.0567 µM | > 45.8 µM | > 43 µM | > 100 µM | 0.439 µM | > 100 µM | 0.104 | > 100 µM | 0.0877 µM | 71.5 µM | 5.03 µM | > 79.5 µM | 20.6 µM | > 100 µM
COc1cc(-c2nc3ccccc3s2)ccc1NC(=O)COc1ccc(Cl)cc1 | 3.07 µM | > 100 µM | > 100 µM | > 100 µM | 4.15 µM | 34.3 µM | 5.35 µM | > 100 µM | 5.07 µM | > 100 µM | > 100 µM | > 100 µM | 2.71 | 12.1 µM | 3.02 µM | 50.4 µM | 3.52 µM | 15.3 µM | 2.68 µM | 7.06 µM
Cc1cc(O)ccc1C1=NN(c2ccc(S(C)(=O)=O)cc2)C(=O)CC1 | 6.2 µM | > 100 µM | 9.09 µM | > 100 µM | 9.07 µM | > 100 µM | 3.74 µM | > 100 µM | 5.37 µM | > 100 µM | 14.3 µM | > 100 µM | 2.53 | 8.6 µM | 40 µM | > 100 µM | 3.48 µM | 32.8 µM | 80.5 µM | > 100 µM
Clc1ccc2c(c1)N(CCCN1CCCC1)c1ccccc1S2 | 11 µM | 24.5 µM | 3.93 µM | 14.2 µM | 12.6 µM | 26.6 µM | 2.77 µM | 7.61 µM | 3.98 µM | 18.5 µM | 4.09 µM | 15.9 µM | 2.23 | 7.11 µM | 5.75 µM | 20.7 µM | 10.8 µM | 23.9 µM | 13 µM | 26 µM
Nc1nc2c(s1)CCc1c-2c(Br)n(Cc2ccccc2)c1Br | 17.2 µM | > 100 µM | 0.534 µM | 11.9 µM | 18 µM | 33.6 µM | 3.55 µM | 19.3 µM | 3.76 µM | 15.4 µM | 2.33 µM | 26.7 µM | 2.04 | 4.63 µM | 14.6 µM | 39 µM | 21.6 µM | 43.4 µM | 4.41 µM | 14.9 µM
O=C1C(=O)c2c(nc3ccc(Br)cn23)-c2ccccc21 | 1.66 µM | 3.81 µM | 1.25 µM | 5.18 µM | 1.59 µM | 3.04 µM | 0.244 µM | 1.04 µM | 0.19 µM | 0.371 µM | 0.447 µM | 2.22 µM | 0.588 | 2.22 µM | 0.543 µM | 1.97 µM | 0.596 µM | 1.99 µM | 2.28 µM | 3.78 µM
NC(=O)c1ccc(NN=O)nc1 | – | > 100 µM | – | > 100 µM | – | > 100 µM | – | > 100 µM | – | > 100 µM | – | > 100 µM | – | > 100 µM | – | > 100 µM | > 100 µM | > 100 µM | – | > 100 µM
CCN1C(=O)N(CC)C2Nn3c(s/c(=C\c4ccccc4Br)c3=O)=NC21 (stereo not given) | 1.23 µM | > 100 µM | 1.32 µM | > 100 µM | 2.81 µM | > 100 µM | 0.515 µM | > 100 µM | 8.08 µM | 78.1 µM | 2.28 µM | 23.2 µM | 1.26 | 4.15 µM | 2.54 µM | 29 µM | 3.55 µM | 25.6 µM | 9.34 µM | > 100 µM
COc1ccc2cc(-c3cc4c(oc3=O)-c3ccccc3OC4O)c(=O)oc2c1 (stereo not given) | 14.5 µM | 28.2 µM | 19.7 µM | 64.7 µM | 20.3 µM | 35.4 µM | 92.9 µM | > 100 µM | 19.3 µM | 36.8 µM | 50 µM | > 100 µM | 17 | 37.6 µM | 16.9 µM | 33.8 µM | 15.6 µM | 31.4 µM | 19.9 µM | 37 µM
Cl.Fc1c[c-]c(-c2ccccn2)c(F)c1.[Pt].c1ccc(P(c2ccccc2)C([PH+](c2ccccc2)c2ccccc2)[PH+](c2ccccc2)c2ccccc2)cc1 | 2.84 µM | 20.7 µM | 3.26 µM | > 100 µM | 2.63 µM | 9.78 µM | 2.44 µM | > 100 µM | 2.5 µM | 7.3 µM | 2.54 µM | > 100 µM | 2.62 | 9.86 µM | 3.22 µM | 25.1 µM | 2.54 µM | 6.7 µM | 2.67 µM | 11.9 µM
CC(=O)Nc1cc(N(CCOS(C)(=O)=O)CCOS(C)(=O)=O)ccc1N=O | – | > 100 µM | – | > 100 µM | – | > 100 µM | – | > 100 µM | – | > 100 µM | – | > 100 µM | – | > 100 µM | – | > 100 µM | – | > 100 µM | – | > 100 µM
COC(=O)/C(=N\Nc1nc(=S)[nH]n1N)C(C#N)c1ccccc1 (stereo not given) | – | > 100 µM | – | > 100 µM | – | > 100 µM | – | > 100 µM | – | > 100 µM | – | > 100 µM | – | > 100 µM | – | > 100 µM | – | > 100 µM | – | > 100 µM
COc1c(C(=O)c2ccc([N+](=O)[O-])cc2)cc(C(C)(C)C)cc1C(C)(C)C | – | > 100 µM | – | 97.5 µM | – | > 100 µM | – | > 100 µM | – | > 100 µM | – | 39.9 µM | – | 56.9 µM | – | > 100 µM | – | 30.1 µM | – | > 100 µM
